In patent publication US10799605B2 (3B PHARMACEUTICALS GMBH, priority 2014, dated 2020):
Read-outs that look alike come from different tables or passages of the source.

Key:
NTR1 [1] = molecular target: T1, NTR1 (Homo sapiens (Human), UniProt P30989); assay: Functional Ca2+ mobilisation assay (example part II); type: cell-based; conditions: antagonist assay
Excerpt: (§1) Ca^2+ ions are usually kept at nanomolar levels in the cytosol of cells, and act in a number of signal transduction pathways as second messengers. […] Changes in calcium ion concentration in standard assay protocols can be readily detected with fluorescent dyes that emit light when changes in intracellular Ca2^+ ion concentration occur. Given the transient nature of these responses, they are often read with instrumentation that has ‘inject and read’ capability.
(§2) HT29 or NTR1-expressing HEK293 cells were trypsinized and seeded into black flat clear-bottom 96-well plates (Corning, Amsterdam, The Netherlands) at 6×10^5 cells per well. After 24 h incubation at 37° C. and 5% CO2, cells were washed twice with wash buffer (130 mM NaCl, 5 mM KCl, 10 mM Hepes, 2 mM CaCl2, 10 mM Glucose, pH 7.4) and loaded with 100 μl of Ca5 dye (Molecular Devices, Biberach, Germany) for 1 h at 37° C. and 5% CO2. For agonist assays, serial dilutions of agonistic substances were added to the cells loaded with dye and the change of the fluorescent signal was recorded continually for approx. 90 s using a FlexStation II (Molecular Devices, Biberach, Germany). Addition of wash buffer served as a control. Thus, EC50 concentrations for each compound were computed and provided a measure for the potency of the substance. For antagonist assays, cells loaded with 100 μl of Ca5-dye were pre-incubated with serial dilutions of antagonistic substances for 30 min, before the EC80-concentration of agonist was added to the cells and the change of the fluorescent signal was recorded continually for approx. 90 s. Thus, IC50 concentrations were computed for each compound and provided a measure for the inhibitory activity of the compounds at the NTR1.

NTR1 [2] = molecular target: T1, NTR1; assay: Radioligand binding assay NTR1 (example part I)
Method: In order to determine the binding affinity of compounds comprising a radiolabel for NTR1, a radioligand binding assay was carried out. A radioligand is a radioactive biochemical substance that is used for diagnosis or for research-oriented study of cellular receptor systems of the body. In […] systems it is often used to quantify the binding of a test molecule to the binding site of radioligand. The higher the affinity of the molecule, the more radioligand is displaced from the binding site. The amount of bound radioligand can be measured by scintillation counting and thereby quantified. This assay is commonly used to calculate binding constants of molecules to receptors.
The NTR1 radioligand binding assay was performed by Cerep (Celle l'Evescault, France; Catalog reference 0109) according to Vita et al., FEBS Lett., 1993, 317, 139-142. NTR1 was prepared from CHO cells recombinantly expressing the human receptor and incubated with 0.05 nM ^125I-(Tyr^3-neurotensin) and serial dilutions of the test compounds. […] The result for each test compound is expressed as IC50 concentration and provides a measure for the affinity of the test compound for NTR1.

NTR1 [3] = molecular target: T1, NTR1; assay: Functional Ca2+ mobilisation assay (example part I); type: cell-based
Excerpt: as §1, with “Ca^2+” for “Ca2^+”
as §2, with “conjugate” for “compound”, “conjugates” for “compounds”

T1 sequence (P30989 whole entry): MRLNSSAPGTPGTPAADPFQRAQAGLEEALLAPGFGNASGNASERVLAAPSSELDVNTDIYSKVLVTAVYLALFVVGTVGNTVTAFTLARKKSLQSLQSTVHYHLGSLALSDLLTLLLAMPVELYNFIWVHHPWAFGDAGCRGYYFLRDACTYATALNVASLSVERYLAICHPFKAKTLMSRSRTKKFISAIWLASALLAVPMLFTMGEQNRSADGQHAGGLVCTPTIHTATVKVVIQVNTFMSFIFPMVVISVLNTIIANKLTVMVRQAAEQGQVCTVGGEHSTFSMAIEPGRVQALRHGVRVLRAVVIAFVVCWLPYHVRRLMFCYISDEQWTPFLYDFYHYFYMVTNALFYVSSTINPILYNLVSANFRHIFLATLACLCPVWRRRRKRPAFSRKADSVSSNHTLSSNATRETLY

`COc1cccc(OC)c1-c1cc(C(=O)NC2(C(=O)NCCNC(=O)CN3CCN(CC(=O)O)CCN(CC(=O)O)CCN(CC(=O)O)CC3)C3CC4CC(C3)CC2C4)nn1-c1ccc(C(=O)N(C)CCCN(C)C)cc1C(C)C` (stereo not drawn) [(XVII), 5-(2,6-Dimethoxy-phenyl)-1-{4-[(3-dimethylamino-propyl)-methyl-carbamoyl]-2-isopropyl-phenyl}-1H-pyrazole-3-carboxylic acid [2-(2-DOTA-amino-ethylcarbamoyl)-adamantan-2-yl]-amide, reference compound] was tested. Which “IC50 [nM] Ca” value (NTR1 [1]) did it give?
Its value is “inactivity”.

Which results are given for `COc1cccc(OC)c1-c1cc(C(=O)NC2(C(=O)O)C3CC4CC(C3)CC2C4)nn1-c1ccc(C(=O)N(C)CCCN(C)CCCN(C)C(=O)CCCC(=O)NCCCOCCOCCOCCCNC(=O)CCC(=O)NCCCC[C@H](NC(=O)CCC(=O)NCCCOCCOCCOCCCNC(=O)CCCC(=O)N(C)CCCN(C)CCCN(C)C(=O)c2ccc(-n3nc(C(=O)NC4(C(=O)O)C5CC6CC(C5)CC4C6)cc3-c3c(OC)cccc3OC)c(C(C)C)c2)C(=O)NCCCOCCOCCOCCCNC(=O)CCC(=O)N[C@@H](CC(N)=O)C(=O)N[C@@H](C)C(=O)N[C@H](C(=O)N2CCC[C@H]2C(=O)N[C@@H](CC(N)=O)C(=O)N[C@@H](CC(C)C)C(=O)N[C@@H](CCCNC(=N)N)C(=O)NCC(=O)N[C@@H](CC(=O)O)C(=O)N[C@@H](CC(C)C)C(=O)N[C@@H](CCC(N)=O)C(=O)N[C@H](C(=O)N[C@@H](CC(C)C)C(=O)N[C@@H](C)C(=O)N[C@@H](CCC(N)=O)C(=O)N[C@@H](CCCCN)C(=O)N[C@H](C(=O)N[C@@H](C)C(=O)N[C@@H](CCCNC(=N)N)C(=O)N[C@H](C(=O)NCCCC(=O)NCCCOCCOCCOCCCNC(=O)CCC(=O)N[C@@H](CCCCNC(=O)CN2CCN(CC(=O)O)CCN(CC(=O)O)CCN(CC(=O)O)CC2)C(N)=O)[C@@H](C)O)C(C)C)C(C)C)C(C)C)cc1C(C)C` (stereo partly drawn) [(25)]?
IC50 (NTR1 [2]): 7.5 nM; EC50 (NTR1 [3]): > 50000 nM; IC50 (NTR1 [3]): 12 nM

For `COc1cccc(OC)c1-c1cc(C(=O)NC2(C(=O)O)C3CC4CC(C3)CC2C4)nn1-c1ccc(C(=O)N(C)CCCN(C)CCCN(C)C(=O)CCN2C(=O)CC(SC[C@H](NC(=O)CCC(=O)NCCCOCCOCCOCCCNC(=O)CCC(=O)NCCCOCCOCCOCCCNC(=O)CCC(=O)NCCCOCCOCCOCCCNC(=O)[C@H](CCCCNC(=O)CN3CCN(CC(=O)O)CCN(CC(=O)O)CCN(CC(=O)O)CC3)NC(=O)CCC(=O)NCCCOCCOCCOCCCNC(=O)CCC(=O)NCCCOCCOCCOCCCNC(=O)CCC(=O)NCCCOCCOCCOCCCNC(=O)CCCNC(=O)[C@@H](NC(=O)[C@H](CCCNC(=N)N)NC(=O)[C@H](C)NC(=O)[C@@H](NC(=O)[C@H](CCCCN)NC(=O)[C@H](CCC(N)=O)NC(=O)[C@H](C)NC(=O)[C@H](CC(C)C)NC(=O)[C@@H](NC(=O)[C@H](CCC(N)=O)NC(=O)[C@H](CC(C)C)NC(=O)[C@H](CC(=O)O)NC(=O)CNC(=O)[C@H](CCCNC(=N)N)NC(=O)[C@H](CC(C)C)NC(=O)[C@H](CC(N)=O)NC(=O)[C@@H]3CCCN3C(=O)[C@@H](NC(=O)[C@H](C)NC(=O)[C@H](CC(N)=O)NC(C)=O)C(C)C)C(C)C)C(C)C)[C@@H](C)O)C(N)=O)C2=O)cc1C(C)C` (stereo partly drawn) [(23)], which IC50 (NTR1 [2]) is on record?
The IC50 was 6.7 nM.

And the EC50 (NTR1 [3])?
The EC50 was > 50000 nM.

And the IC50 (NTR1 [3])?
Its IC50 is 15 nM.

Which IC50 (NTR1 [2]) does the source give for `COc1cccc(OC)c1-c1cc(C(=O)NC2(C(=O)O)C3CC4CC(C3)CC2C4)nn1-c1ccc(C(=O)N(C)CCCN(C)CCCN(C)C(=O)CCCC(=O)NCCCOCCOCCOCCCNC(=O)CCC(=O)NCCCOCCOCCOCCCNC(=O)CCC(=O)NCCCOCCOCCOCCCNC(=O)CCC(=O)N[C@@H](CCCCNC(=O)CN2CCN(CC(=O)O)CCN(CC(=O)O)CCN(CC(=O)O)CC2)C(=O)NCCCOCCOCCOCCCNC(=O)CCC(=O)NCCCOCCOCCOCCCNC(=O)CCC(=O)NCCCOCCOCCOCCCNC(=O)CCC(=O)NCCCC(=O)N[C@H](CCCNC(=N)N)C(=O)N[C@@H](CCCNC(=N)N)C(=O)N2CCC[C@H]2C(=O)N[C@@H](Cc2ccc(O)cc2)C(=O)N[C@H](C(=O)N[C@@H](CC(C)C)C(=O)O)C(C)(C)C)cc1C(C)C` (stereo partly drawn) [(18), 1206-Glutar-Ttds3-Lys(DOTA)-Ttds3-GABA-arg-Arg-Pro-Tyr-Tle-Leu-OH] here?
Its IC50 is 2.7 nM.

And the EC50 (NTR1 [3])?
Its EC50 is > 50000 nM.

And the IC50 (NTR1 [3])?
The IC50 was 3.8 nM.

Which results are given for `COc1cccc(OC)c1-c1cc(C(=O)NC2(C(=O)O)C3CC4CC(C3)CC2C4)nn1-c1ccc(C(=O)N(C)CCCN(C)CCCN(C)C(=O)CCCC(=O)NCCCOCCOCCOCCCNC(=O)CCC(=O)N[C@@H](CCCCNC(=O)CN2CCN(CC(=O)O)CCN(CC(=O)O)CCN(CC(=O)O)CC2)C(=O)NCCCOCCOCCOCCCNC(=O)CCC(=O)NCCCC(=O)N[C@@H](CCCNC(=N)N)C(=O)N[C@@H](CCCNC(=N)N)C(=O)N2CCC[C@H]2C(=O)N[C@@H](Cc2ccc(O)cc2)C(=O)N[C@H](C(=O)N[C@@H](CC(C)C)C(=O)O)C(C)(C)C)cc1C(C)C` (stereo partly drawn) [(16), 1206-Glutar-Ttds-Lys(DOTA)-Ttds-GABA-Arg-Arg-Pro-Tyr-Tle-Leu-OH]?
IC50 (NTR1 [2]): 0.14 nM; EC50 (NTR1 [3]): 4 nM; IC50 (NTR1 [3]): 3.8 nM; shape of EC50 curve (NTR1 [3]; agonist assay): bell-shaped EC50 curves

What does the source list for `COc1cccc(OC)c1-c1cc(C(=O)NC2(C(=O)O)C3CC4CC(C3)CC2C4)nn1-c1ccc(C(=O)N(C)CCCN(C)CCCN(C)C(=O)CCCNC(=O)CCC(=O)NCCCOCCOCCOCCCNC(=O)[C@H](CCCCNC(=O)CN2CCN(CC(=O)O)CCN(CC(=O)O)CCN(CC(=O)O)CC2)NC(=O)CCC(=O)NCCCOCCOCCOCCCNC(=O)CCCC(=O)N(C)CCCN(C)CCCN(C)C(=O)c2ccc(-n3nc(C(=O)NC4(C(=O)O)C5CC6CC(C5)CC4C6)cc3-c3c(OC)cccc3OC)c(C(C)C)c2)cc1C(C)C` (stereo partly drawn) [(12), 1206-Glutar-Ttds-Lys(DOTA)-Ttds-GABA-1206]?
IC50 (NTR1 [2]; 0.05 nM 125I-(Tyr3-neurotensin), 60 min at 4° C., read-out: IC50): 2.5 nM; EC50 (NTR1 [3]; agonist assay, * bell-shaped curves, EC50 from ascending part of the curve, read-out: Agonistic Effect EC50): > 50000 nM; IC50 (NTR1 [3]; antagonist assay, 30 min pre-incubation, EC80-concentration of agonist, read-out: Antagonistic Effect IC50): 2.5 nM

With `COc1cccc(OC)c1-c1cc(C(=O)N[C@H](C(=O)O)C2CCCCC2)nn1-c1ccc(C(=O)N(C)CCCN(C)CCCN(C)C(=O)CN2CCN(CC(=O)O)CCN(CC(=O)O)CCN(CC(=O)O)CC2)cc1C(C)C` [(IVa), (S)-2-{[1-{4-[(3-{[3-(DOTA-methyl-amino)-propyl]-methyl-amino}-propyl)-methyl-carbamoyl]-2-isopropyl-phenyl}-5-(2,6-dimethoxy-phenyl)-1H-pyrazole-3-carbonyl]-amino}-cyclohexyl-acetic acid] as the compound, how does the IC50 (NTR1 [1]) read?
Its IC50 is 125 nM.
